Patent publication US20240360148A1 (SUVALENT THERAPEUTICS, INC., priority 2021, published 2024)
pIC50: −log10 of the molar value. ≈ marks a conversion by molar mass, not a printed value. Like-named read-outs stand apart in the source and are kept apart here.

Experiments:
[1] = Caco-2 permeability/efflux; type: in vitro ADME; settings: human, Caco-2, pH 7.4; B-A / A-B
Method: (§1) Caco-2 cells were obtained from American Tissue Culture Collection (Rockville, MD). The cells were maintained in Modified Eagle's medium (MEM), containing 10% heat-inactivated fetal bovine serum (FBS), and 1% non-essential amino acids, in CO2 at 37° C. Cells were seeded on polycarbonate filter inserts (Millipore, CAT #PSHT 010 R5). The cells were cultured for 21-28 days prior to the permeability experiments. The Lucifer Yellow permeability was checked before and after the assay. Compounds were dissolved at 10 mM in 100% dimethyl sulfoxide (DMSO) and diluted for studies in Hanks Balanced Salt Solution (HBSS, Invitrogen, Cat #14025-092) with 25 mM HEPES, pH 7.4. Compounds were tested at 10 µM in both the apical-to-basolateral (A-B) and basolateral-to-apical (B-A) directions, incubations were conducted at 37° C. for 90 min. At the end of incubation, samples were diluted by assay buffer, and analyzed by LC-MS/MS. The concentrations of the compounds were quantified by standard curve. The first comparator example (Comp. Ex. 1) is the chloro substituted thienodihydropyridine

Caco-2 cells = assay: Caco-2 permeability/efflux; type: in vitro ADME; settings: 10 uM, 37° C., 90 min, pH 7.4
Method: as §1

[2] = Plasma protein binding, equilibrium dialysis, mouse plasma; type: in vitro ADME; settings: 5 hours at 37° C., read-out: PPB % bound Mouse (converted)
Method: (§2) The compounds of interest were evaluated for various PK parameters. Specifically CACO permeability/efflux and plasma protein binding (PPP) were determined. Stock solutions were prepared at 10 mM in DMSO for test and reference compounds. Aliquots of the stock solution were diluted to 500× of final concentration (0.5 mM) with DMSO, then further diluted upon the addition of bank PE3-buffer to 20× of final concentration (20 μM). Then test and reference compounds were prepared in plasma at 1 μM. For 0 hour incubation: 25 μL of the plasma spiked with test and reference compounds was transferred into a 96-well sample preparation plate, and then 25 μL blank PB-buffer was added. The samples were quenched by 200 μL of IS solution to prepare [Initial]0h samples. For 5 hours incubation: 100 μL of the plasma spiking with test and reference compounds was loaded on donor side, and 100 μL of blank PB-buffer were loaded on receiver side of the equilibrium dialysis device. Samples were incubated in an air-bath shaker (60 rpm) for 5 hours at 37° C. After 5 hours incubation, 25 μL of samples (from both the donor sides and receiver sides of the dialysis apparatus) was aspirated and added into new sample preparation plates, separately. 25 μL of blank PB-buffer was added to donor side samples and 25 μL of blank plasma was added to receiver side samples to balance the matrix. The samples were quenched with 200 μL of IS solution. The assay plate was shaken at the vibrator (Hangzhou Allsheng, MX100-4A) for 10 min (600 rpm) and then centrifuged at 5,594×g for 15 min (Thermo Multifuge×3R). An aliquot of the 50 μL supernatant was taken from each well and diluted by 50 μL distilled water, then analyzed by UPLC-MS/MS.

[3] = system: sumoylation levels (SUMO 2/3 conjugates) in HCT-116 cells; assay: HCT-116 4 Hour Cell Assay (Western, SUMO 2/3 conjugates); type: cell-based; settings: 4 h treatment, Anti-Sumo 2-3 immunoblot, read-out: HCT-116 Western 4 h IC50 (μM) Ave
Method in brief: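 IC50 derived from fluorescent immunoblot quantification of SUMO 2/3 conjugate bands, normalized to total protein, after non-reducing SDS-PAGE. Lysis used RIPA plus NEM; exposure was 4 h across 11 concentrations, three-fold serial dilution starting at 25 μM.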

[4] = Plasma protein binding, equilibrium dialysis, rat plasma; type: in vitro ADME; settings: 5 hours at 37° C., read-out: PPB % bound Rat (converted)
Method: as §2

SAE1 [5] = molecular target: SAE1 (Homo sapiens (Human), UniProt Q9UBT2); assay: SAE High Throughput Biochemical Assay (HTRF), 15 min preincubation; settings: SAE1 12.5 nM, ATP 100 μM
Method in brief: (§3)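 HTRF detection of SUMO transfer from SUMO-GST to UBC9-His (40 nM each) by SAE1 at 12.5 nM used 100 μM ATP in pH 7.5 HEPES buffer with 10 mM MgCl2 and 0.1% BSA. Enzyme and compound were preincubated 15 min at RT and the reaction ran 45 min, with readings after 2 h and overnight.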

SAE1 [6] = molecular target: SAE1 (Homo sapiens (Human), UniProt Q9UBE0+Q9UBT2); assay: as above; settings: read-out: 15 min preincubation HTRF IC50 (μM) Ave, SAE1 12.5 nM, ATP 100 μM
Method in brief: as §3

[7] = Plasma protein binding, equilibrium dialysis, dog plasma; type: in vitro ADME; settings: 5 hours at 37° C., read-out: PPB % bound Dog (converted)
Method: as §2

[8] = Plasma protein binding, equilibrium dialysis, human plasma; type: in vitro ADME; settings: 5 hours at 37° C., read-out: PPB % bound Human (converted)
Method: as §2

Solubility Evaluation = type: physicochemical; settings: kinetic from dmso stock, 1 hour at RT
Method: The compounds of interest were evaluated for their solubility in various biological solutions. Specifically, aliquots (8 μL) of reference and test compound stock solutions (10 mM) were added into 792 μL of buffer (PBS, pH7.4, FaSSIF, pH 6.5, or FaSSGF, pH 1.6) respectively (Final DMSO conc.: 1%). Sample tubes were shaken for 1 hour (1000 rpm) at RT. The experiment was calibrated using 300 μM spiked solution (SS) in MeOH/CAN (4:1) by adding 6 μL of 10 mM compound stock solution in 194 μL MeOH/ACN(4:1) ranging from 60 μM to 0.02 μM. The samples were centrifuged (10 min-12000 rpm) to precipitate un-dissolved particles. The supernatants were transferred to a new tube or plate. Supernatants were diluted 10 times and 100 times with 100 mM buffer then analyzed by LC-MS/MS. SGF=simulated gastric fluid, SIF=simulated intestinal fluid, PBS=phosphate buffered saline pH 7.4 Values are noted in μM.

[9] = PBS (phosphate buffered saline), aqueous buffer, phosphate buffered saline pH 7.4, 1% DMSO, read-out: Solubilities PBS
[10] = simulated intestinal fluid (FaSSIF, pH 6.5), 1% DMSO, read-out: Solubilities SIF

Sequence of SAE1 (Homo sapiens (Human), UniProt Q9UBE0+Q9UBT2) (Q9UBE0 whole entry): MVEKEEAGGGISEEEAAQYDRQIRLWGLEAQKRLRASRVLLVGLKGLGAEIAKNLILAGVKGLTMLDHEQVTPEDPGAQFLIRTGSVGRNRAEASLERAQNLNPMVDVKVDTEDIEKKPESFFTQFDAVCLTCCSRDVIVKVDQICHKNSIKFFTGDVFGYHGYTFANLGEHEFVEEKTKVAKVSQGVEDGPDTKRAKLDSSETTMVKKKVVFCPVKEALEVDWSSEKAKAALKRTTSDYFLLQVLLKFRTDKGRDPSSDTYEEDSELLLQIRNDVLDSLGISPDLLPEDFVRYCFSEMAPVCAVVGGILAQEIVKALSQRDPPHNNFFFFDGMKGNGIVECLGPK
Sequence of SAE1 (Homo sapiens (Human), UniProt Q9UBE0+Q9UBT2) (Q9UBT2 whole entry): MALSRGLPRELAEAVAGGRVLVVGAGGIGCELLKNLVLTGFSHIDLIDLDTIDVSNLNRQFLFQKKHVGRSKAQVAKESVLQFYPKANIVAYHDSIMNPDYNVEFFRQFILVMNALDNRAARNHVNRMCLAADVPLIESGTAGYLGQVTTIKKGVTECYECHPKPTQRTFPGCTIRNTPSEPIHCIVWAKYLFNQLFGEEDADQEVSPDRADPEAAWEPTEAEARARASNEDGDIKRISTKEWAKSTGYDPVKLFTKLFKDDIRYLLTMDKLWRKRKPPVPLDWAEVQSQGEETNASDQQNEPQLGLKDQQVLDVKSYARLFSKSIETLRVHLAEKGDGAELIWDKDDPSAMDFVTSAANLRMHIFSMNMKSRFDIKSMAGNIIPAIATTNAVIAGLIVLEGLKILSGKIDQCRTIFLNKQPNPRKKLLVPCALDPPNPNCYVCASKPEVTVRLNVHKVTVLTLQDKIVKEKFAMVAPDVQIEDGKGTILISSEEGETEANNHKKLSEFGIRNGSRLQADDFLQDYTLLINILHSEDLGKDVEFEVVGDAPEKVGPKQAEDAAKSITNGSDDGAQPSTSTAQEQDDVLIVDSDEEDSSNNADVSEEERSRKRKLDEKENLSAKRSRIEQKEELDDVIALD
Sequence of SAE1 (Homo sapiens (Human), UniProt Q9UBT2) (Q9UBE0 whole entry): as the sequence (Q9UBE0 whole entry) above
Sequence of SAE1 (Homo sapiens (Human), UniProt Q9UBT2) (Q9UBT2 whole entry): as the sequence (Q9UBT2 whole entry) above

efflux ratio at 90 min, 10 μM [1]	Caco-2 apparent permeability (Papp) (Caco-2 cells; apical-to-basolateral)	Caco-2 apparent permeability (Papp) (Caco-2 cells; basolateral-to-apical)	fraction unbound at 5 h, 1 μM [2]	IC50 [3] [µM]	IC50 ([3]; Homo sapiens, HCT-116, 4 h) [µM]	fraction unbound at 5 h, 1 μM [4]	fraction unbound at 5 h, 1 μM [7]	fraction unbound at 5 h, 1 μM [8]	solubility at 1 h (Solubility Evaluation; [9]) [µM]	solubility at 1 h (Solubility Evaluation; [10]) [µM]	Compound	pIC50 (SAE1 [5])	IC50 (SAE1 [6]) [µM]
2	6 10^-6 cm/s	14 10^-6 cm/s	0.026	0.18	0.101	0.051	0.013	0.028			CCn1cc(-c2c(F)cccc2[C@@H]2CN(C(=O)/C=C/CNC)Cc3sc(C#N)c(C)c32)c(C(F)(F)F)n1 [Example 217, (S, E)-4-(2-(1-ethyl-3-(trifluoromethyl)-1 H-pyrazol-4-yl)-3-fluorophenyl)-3-methyl-6-(4-(methylamino)but-2-enoyl)-4,5,6,7-tetrahydrothieno[2,3-c]pyridine-2-carbonitrile]	6.82	0.13
5	5 10^-6 cm/s	58 10^-6 cm/s	0.035		0.353			0.049			CCn1cc(-c2ccccc2[C@@H]2CN(C(=O)/C=C/CNC)Cc3sc(C#N)cc32)c(C(F)(F)F)n1 [Example 12, (S, E)-4-(2-(1-Ethyl-3-(trifluoromethyl)-1 H-pyrazol-4-yl)phenyl)-6-(4-(methylamino)but-2-enoyl)-4,5,6,7-tetrahydrothieno[2,3-c]pyridine-2-carbonitrile]	5.48	

The next lines start with the compound.

Compound	efflux ratio at 90 min, 10 μM [1]	Caco-2 apparent permeability (Papp) (Caco-2 cells; apical-to-basolateral)	Caco-2 apparent permeability (Papp) (Caco-2 cells; basolateral-to-apical)	fraction unbound at 5 h, 1 μM [2]	IC50 [3] [µM]	IC50 ([3]; Homo sapiens, HCT-116, 4 h) [µM]	fraction unbound at 5 h, 1 μM [4]	fraction unbound at 5 h, 1 μM [7]	fraction unbound at 5 h, 1 μM [8]	solubility at 1 h (Solubility Evaluation; [9]) [µM]	solubility at 1 h (Solubility Evaluation; [10]) [µM]	pIC50 (SAE1 [5])	IC50 (SAE1 [6]) [µM]
CCn1cc(-c2c(F)cccc2[C@@H]2CN(C(=O)/C=C/[C@@H]3CCCN3)Cc3sc(C#N)cc32)c(C(F)(F)F)n1 [Example 118, (S)-4-(2-(1-Ethyl-3-(trifluoromethyl)-1H-pyrazol-4-yl)-3-fluorophenyl)-6-((E)-3-((S)pyrrolidin-2-yl)acryloyl)-4,5,6,7-tetrahydrothieno[2,3-c]pyridine-2-carbonitrile]		4 10^-6 cm/s	21 10^-6 cm/s	0.014		0.114			0.032	57 (≈ 31 µg/mL)	70 (≈ 38.1 µg/mL)		0.29
CCn1cc(-c2c(F)cccc2[C@@H]2CN(C(=O)/C=C/CN(C)C)Cc3sc(C#N)cc32)c(C(F)(F)F)n1 [Example 215, (S,E)-6-(4-(dimethylamino)but-2-enoyl)-4-(2-(1-ethyl-3-(trifluoromethyl)-1 H-pyrazol-4-yl)-3-fluorophenyl)-4,5,6,7-tetrahydrothieno[2,3-c]pyridine-2-carbonitrile]	1	15 10^-6 cm/s	20 10^-6 cm/s	0.023		0.0856		0.02	0.04				1.35
C=CC(=O)N1Cc2sc(Cl)cc2[C@H](c2ccccc2-c2cn(CC)nc2C(F)(F)F)C1 [Comp. Ex. 1, reference compound]				< 0.001					0.002				
CCn1cc(-c2c(F)cccc2[C@@H]2CN(C(=O)/C=C/[C@H](C)NC)Cc3sc(C#N)cc32)c(C(F)(F)F)n1 [Example 89, (S)-4-(2-(1-Ethyl-3-(trifluoromethyl)-1 H pyrazol-4-yl)-3-fluorophenyl)-6-((S, E)-4-(methylamino)pent-2-enoyl)-4,5,6,7-tetrahydrothieno[2,3-c]pyridine-2-carbonitrile]		8 10^-6 cm/s	11 10^-6 cm/s	0.024		0.145			0.029	78 (≈ 41.5 µg/mL)	90 (≈ 47.8 µg/mL)		1.13
CCn1cc(-c2ccccc2[C@@H]2CN(C(=O)/C=C/CN(C)C)Cc3sc(Cl)cc32)c(C(F)(F)F)n1 [Comp. Ex. 2, reference compound]				< 0.003					0.008				
